Tests used:
[1] = tested on: spontaneously hypertensive rats (SHR); assay: Antihypertensive activity in vivo: SBP of SHR by tail-cuff method after intragastric administration; set-up: species or system rat
Method: Spontaneously hypertensive rats (SHR) with systolic blood pressure (SBP) between 170 and 190 mmHg and original strain Wistar Kyoto rats (WKR) with SBP between 100 and 125 mmHg were purchased from Harlan, USA (Indianapolis, USA). All rats were treated in accordance with Kyung Hee University guidelines for the care and use of laboratory animals. The animals were individually housed in stainless steel cages and adapted to 23 ± 1°C and humidity of 55 ± 5% under a 12 h light-dark cycle. The 12-week-old rats were fed a pelletized commercial chow diet for a period of 1 week after arrival and then randomly divided into five groups: untreated SHR control group (n = 3); normal WKR control group (n = 3); oyster hydrolysate-treated SHR group (100 mg/kg body weight, n = 3); sardine hydrolysate-treated SHR group (positive control, 100 mg/kg body weight, n = 3); and Captopril-treated SHR group (positive control, ACE inhibitor; 8 mg/kg body weight, n = 3). After intragastric administration of the samples using Sonde, SBP of the rats was measured by a Coda noninvasive blood pressure system (Kent Scientific Corporation, Baltimore, USA) using the tail-cuff method after prewarming for 30 min in an environmental chamber of 32°C at 0, 3, 6, 9, 12, and 24 h. Subsequent measurement of blood pressure was expressed as a percentage of that at the initial time.

[2] = in vitro; type: cell-based; settings: human
Method: The ACE inhibitory activities of the synthetic peptides were measured, and the cell toxicity was evaluated by cell viability testing on the hepatocyte cell line HepG2. HepG2 cells were cultured in MEM medium containing 10% fetal bovine serum. Ninety-six well plates containing 1 × 10^4 cells per well were incubated at 35°C for 24 h under 95% humidity and 5% CO2. After incubation, the synthetic peptides were added (final concentration, 200 μg/mL) and cells were incubated under the same conditions for an additional 24 h. Cell growth was assessed with the CellTiter 96 Aqueous One Solution Cell Proliferation Assay kit (Promega, Madison, WI, USA) and absorbance was determined with a microplate reader (Perkin Elmer 1420, VICTOR X Multilabel Plate readers, Waltham, MA, USA) at 490 nm. Cell viability was calculated as the percentage of absorbance of the synthetic peptide-treated groups compared with that of the untreated group (100% viability).

[3] = biological target: Angiotensin I-converting enzyme (UniProt P12822)
Sequence of UniProt P12822 (P12822 34-1260): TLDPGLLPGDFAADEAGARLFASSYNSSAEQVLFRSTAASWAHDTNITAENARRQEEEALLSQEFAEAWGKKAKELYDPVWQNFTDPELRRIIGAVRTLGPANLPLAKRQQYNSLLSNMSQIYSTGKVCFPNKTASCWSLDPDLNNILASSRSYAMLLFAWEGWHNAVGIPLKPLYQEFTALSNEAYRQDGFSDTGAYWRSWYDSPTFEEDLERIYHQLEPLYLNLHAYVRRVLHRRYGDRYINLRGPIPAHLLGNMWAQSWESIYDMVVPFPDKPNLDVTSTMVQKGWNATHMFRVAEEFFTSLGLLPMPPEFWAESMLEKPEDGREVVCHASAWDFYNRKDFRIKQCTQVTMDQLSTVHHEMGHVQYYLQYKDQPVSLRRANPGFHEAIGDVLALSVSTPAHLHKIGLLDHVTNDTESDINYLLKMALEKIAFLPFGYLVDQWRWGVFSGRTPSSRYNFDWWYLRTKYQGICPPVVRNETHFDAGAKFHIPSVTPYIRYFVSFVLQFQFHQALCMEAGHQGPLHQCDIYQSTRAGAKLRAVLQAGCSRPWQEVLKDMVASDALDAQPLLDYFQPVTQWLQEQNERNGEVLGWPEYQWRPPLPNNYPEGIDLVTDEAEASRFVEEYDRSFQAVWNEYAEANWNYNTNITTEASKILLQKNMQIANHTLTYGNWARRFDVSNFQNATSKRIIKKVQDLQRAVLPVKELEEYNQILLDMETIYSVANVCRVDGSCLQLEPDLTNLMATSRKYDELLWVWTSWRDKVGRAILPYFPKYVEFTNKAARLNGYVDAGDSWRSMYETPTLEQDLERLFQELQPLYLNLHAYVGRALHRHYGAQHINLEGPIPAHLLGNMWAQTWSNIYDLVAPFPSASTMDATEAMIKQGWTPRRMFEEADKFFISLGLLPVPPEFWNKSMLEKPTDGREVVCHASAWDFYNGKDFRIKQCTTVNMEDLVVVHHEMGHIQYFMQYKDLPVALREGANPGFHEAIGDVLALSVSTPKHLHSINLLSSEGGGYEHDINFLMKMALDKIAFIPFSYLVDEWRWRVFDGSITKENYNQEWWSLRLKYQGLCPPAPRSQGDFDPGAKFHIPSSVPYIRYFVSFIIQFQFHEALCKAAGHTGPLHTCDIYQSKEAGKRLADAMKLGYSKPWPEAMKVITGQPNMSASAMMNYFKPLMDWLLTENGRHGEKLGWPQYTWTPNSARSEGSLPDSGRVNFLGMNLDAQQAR

Molecule | IC50 of ACE inhibition (enzyme activity: hippuric acid released from HHL, by HPLC) [3] [µM] | viability at 24 h, 200 μg/mL [2] [%] | also measured
C[C@H](CS)C(=O)N1CCC[C@H]1C(=O)O [Captopril] |  |  | SBP at maximum decrease, as % of the initial SBP ([1]; 8 mg/kg intragastric, 12 h after administration): 85.3 ± 4.5%; effect on SBP of SHR (in words) ([1]; oral administration, oyster and sardine hydrolysate 100 mg/kg, Captopril 8 mg/kg): not significant
NC(=O)C[C@H](NC(=O)[C@H](Cc1ccc(O)cc1)NC(=O)[C@@H](N)Cc1ccccc1)C(=O)O [FYN] |  | 110 ± 3 | 
NCCCC[C@H](N)C(=O)N[C@@H](Cc1ccc(O)cc1)C(=O)O [KY] |  | 118 ± 7 | 
C[C@H](NC(=O)[C@@H](N)[C@@H](C)O)C(=O)N[C@@H](Cc1ccc(O)cc1)C(=O)O [TAY] |  | 105 ± 1.9 | 
CC(C)[C@H](N)C(=O)N[C@@H](CCCCN)C(=O)O [VK] |  | 118 ± 15.1 | 
FYN (peptide) | 68.2 |  | 
YA (peptide) | 93.9 |  | 

The next lines start with results.

IC50 of ACE inhibition (enzyme activity: hippuric acid released from HHL, by HPLC) [3] [µM] | Molecule | viability at 24 h, 200 μg/mL [2] [%] | also measured
51.5 | KY (peptide) |  | 
16.7 | TAY (peptide) |  | 
29 | VK (peptide) |  | 

Source: article PMC4130196, “Angiotensin I-Converting Enzyme Inhibitor Derived from Cross-Linked Oyster Protein” (BioMed Research International, 2014)
